In patent US20220089710A1, “Method of Treating Signs and Symptoms of Osteoarthritis” (Pfizer Inc., priority 2019, published 2022):
Read-outs that look alike come from different tables or passages of the source.

How the values were obtained:
[1] = test system: patients with moderate to severe OA of the hip or knee; test: Example 1: randomized, double-blind, placebo-controlled dose-titration study of SC tanezumab (16-week treatment), efficacy: WOMAC Pain, WOMAC Physical Function, PGA-OA, average daily index joint pain; type: in vivo, human; details: for PGA-OA: Diff of LS Means vs placebo / PGA-OA: LS Mean change from Baseline / WOMAC Pain: Diff of LS Means vs placebo / WOMAC Pain: LS Mean change from Baseline / WOMAC Physical Function: Diff of LS Means vs placebo / WOMAC Physical Function: LS Mean change from Baseline / proportion of patients with ≥50% reduction from baseline in WOMAC Pain subscale: Week 16
Procedure: All patients provided written informed consent before participating. The study was conducted in compliance with the Declaration of Helsinki and all International Conference on Harmonisation Good Clinical Practice guidelines.
The co-primary efficacy endpoints were change from baseline to week 16 in WOMAC Pain subscale, WOMAC Physical Function subscale, and PGA-OA (Theiler et al., Osteoarthritis Cartilage. 2002; 10(6):479-481; Stengaard-Pederson et al., Rheumatology (Oxford). 2004; 43(5):592-595). WOMAC Pain and WOMAC Physical Function subscales measured symptoms within the last 48 hours; both used an 11-point numeric rating scale where higher scores indicated higher levels of pain or worse function. For PGA-OA, patients answered the question “Considering all the ways your osteoarthritis in your hip/knee affects you, how are you doing today?” on a scale from 1=“very good” to 5=“very poor.”
A key secondary efficacy endpoint was the WOMAC Pain […], responder rate at week 16. Other secondary efficacy endpoints were WOMAC Pain responder rates (≥30%, ≤70%, and ≤90%) at week 16 and patient-reported rescue medication use during weeks 2, 4, 8, 12, and 16.
Individual patient transitions in WOMAC Pain response categories (non-response defined as <30% reduction in WOMAC Pain; moderate response as ≥30%, but <50% reduction in WOMAC Pain; and substantial response as […], reduction from baseline in WOMAC Pain) between adjacent time points through the study (from week 4 to week 8, from week 8 to week 12, and from week 12 to week 16), were investigated using contingency tables. These analyses were conducted post hoc. Consistent non-responders were those patients with less than a 30% reduction from baseline in WOMAC Pain at two consecutive time points. Consistent moderate responders were those patients with at least a 30% but less than 50% reduction from baseline in WOMAC Pain at two consecutive time points. Consistent substantial responders were those patients who maintained at least a 50% reduction from baseline in WOMAC Pain at two consecutive time points.
Co-primary endpoints were analyzed in the intent-to-treat population (all patients who received ≥1 study medication dose) using an analysis of covariance model, with terms for baseline score, baseline patient diary average pain, index joint, Kellgren-Lawrence grade, and treatment group, and study site as a random effect. Missing data were handled with a multiple imputation strategy dependent on the reason for discontinuation.
Comparisons for other secondary endpoints were unadjusted. […] Safety assessments were summarized by treatment group as percentages of the treatment group population.

[2] = test system: patients with osteoarthritis (OA) of the knee or hip;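 also: SC doses every 8 weeks plus twice-daily oral study drug to Week 56, efficacy assessed in all randomized patients given at least one SC dose, by assigned arm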
Procedure: Patients received a total of seven SC injections, each separated by 8 weeks and daily oral (PO) study medication BID through Week 56.
The Intent-to-Treat (ITT) Population included all patients who were randomized and received at least one dose of SC study drug. This analysis set was primary for all efficacy endpoints, which were analyzed according to randomization assignment. The Safety Population included all patients who received at least one dose of SC study treatment. This analysis set was primary for all safety endpoints, which were analyzed according to treatment received.

[3] = 2.5 mg SC, Week 16, mixed BOCF/LOCF

Substance: tanezumab: humanized immunoglobulin G Type 2 (IgG2) monoclonal antibody directed against human nerve growth factor (NGF); SEQ ID NOs: 9 or 11 and 10
- PGA-OA: Diff of LS Means vs placebo ([1]; 2.5 mg SC): −0.22
- PGA-OA: LS Mean change from Baseline ([1]; 2.5 mg SC): −0.87
- WOMAC Pain: Diff of LS Means vs placebo ([1]; 2.5 mg SC): −0.60
- WOMAC Pain: LS Mean change from Baseline ([1]; 2.5 mg SC): −3.23
- WOMAC Physical Function: Diff of LS Means vs placebo ([1]; 2.5 mg SC): −0.66
- WOMAC Physical Function: LS Mean change from Baseline ([1]; 2.5 mg SC): −3.22
- proportion of patients with ≥50% reduction from baseline in WOMAC Pain subscale ([1]; 2.5 mg SC): 54.5%
- week 8 non-responders (<30% reduction in WOMAC Pain) transitioning to a moderate response at week 12 ([1]; 2.5 mg group (10/88)): 11.4%
- week 8 non-responders (<30% reduction in WOMAC Pain) transitioning to a substantial response at week 12 ([1]; 2.5 mg group (14/88)): 15.9%
- patients maintaining a moderate or substantial response from week 8 to week 12 ([1]; 2.5 mg group (138/231)): 59.7%
- PGA-OA: Diff of LS Means vs placebo ([1]; 2.5/5 mg SC): −0.25
- PGA-OA: LS Mean change from Baseline ([1]; 2.5/5 mg SC): −0.90
- WOMAC Pain: Diff of LS Means vs placebo ([1]; 2.5/5 mg SC): −0.73
- WOMAC Pain: LS Mean change from Baseline ([1]; 2.5/5 mg SC): −3.37
- WOMAC Physical Function: Diff of LS Means vs placebo ([1]; 2.5/5 mg SC): −0.89
- WOMAC Physical Function: LS Mean change from Baseline ([1]; 2.5/5 mg SC): −3.45
- proportion of patients with ≥50% reduction from baseline in WOMAC Pain subscale ([1]; 2.5/5 mg SC): 57.1%
- week 8 non-responders (<30% reduction in WOMAC Pain) transitioning to a substantial response at week 12 ([1]; 2.5/5 mg group (17/90)): 18.9%
- week 8 non-responders (<30% reduction in WOMAC Pain) transitioning to a moderate response at week 12 ([1]; 2.5/5 mg group (20/90)): 22.2%
- patients maintaining a moderate or substantial response from week 8 to week 12 ([1]; 2.5/5 mg group (138/233)): 59.2%
- PGA-OA: LS Mean (SE) change from Baseline ([2]; 2.5 mg SC, Week 16): −0.96 (0.04)
- PGA-OA: LS Mean Difference vs. NSAID (SE) ([2]; 2.5 mg SC, Week 16): −0.02 (0.04)
- WOMAC Pain ≥30% reduction: % of patients ([2]; 2.5 mg SC, Week 16): 71.8%
- WOMAC Pain ≥30% reduction: number of patients ([2]; 2.5 mg SC, Week 16): 718
- WOMAC Pain ≥70% reduction: % of patients ([2]; 2.5 mg SC, Week 16): 28.9%
- WOMAC Pain ≥70% reduction: number of patients ([2]; 2.5 mg SC, Week 16): 289
- WOMAC Pain ≥90% reduction: % of patients ([2]; 2.5 mg SC, Week 16): 10.3%
- WOMAC Pain ≥90% reduction: number of patients ([2]; 2.5 mg SC, Week 16): 103
- WOMAC Pain: LS Mean Difference vs. NSAID (SE) ([2]; 2.5 mg SC, Week 16): −0.15 (0.11)
- WOMAC Physical Function: LS Mean (SE) change from Baseline ([2]; 2.5 mg SC, Week 16): −3.27 (0.11)
- WOMAC Physical Function: LS Mean Difference vs. NSAID (SE) ([2]; 2.5 mg SC, Week 16): −0.19 (0.11)
- WOMAC Pain: LS Mean (SE) change from Baseline ([2]; 2.5 mg SC, Week 16, ITT, multiple imputation): −3.22 (0.11)
- WOMAC Pain ≥50% reduction: % of patients [2, 3]: 54.9%
- WOMAC Pain ≥50% reduction: number of patients [2, 3]: 549
- PGA-OA: LS Mean Difference vs. NSAID ([2]; 2.5 mg SC, Week 56): 0.01
- PGA-OA: LS Mean change from Baseline ([2]; 2.5 mg SC, Week 56): −0.65
- WOMAC Pain: LS Mean Difference vs. NSAID ([2]; 2.5 mg SC, Week 56): −0.02
- WOMAC Pain: LS Mean change from Baseline ([2]; 2.5 mg SC, Week 56): −2.44
- WOMAC Physical Function: LS Mean Difference vs. NSAID ([2]; 2.5 mg SC, Week 56): −0.05
- WOMAC Physical Function: LS Mean change from Baseline ([2]; 2.5 mg SC, Week 56): −2.45
- PGA-OA: LS Mean (SE) change from Baseline ([2]; 5 mg SC, Week 16): −0.97 (0.04)
- PGA-OA: LS Mean Difference vs. NSAID (SE) ([2]; 5 mg SC, Week 16): −0.04 (0.04)
